Experimental data taken from US20250025466A1, “New oral pharmaceutical composition and dose regimen for the therapy of progressive fibrosing interstitial lung diseases” (Boehringer Ingelheim International GmbH, priority 2021, published 2025).
Marks after values point to notes of the source that are not given here.

Assays:
[1] = system: human fetal lung fibroblasts (HFL-1); conditions: cited from earlier work
[2] = system: cecal abrasion model; conditions: mouse, in vivo; cited from earlier work
[3] = system: renal interstitial fibrosis; conditions: mouse, in vivo; cited from earlier work
[4] = system: mouse primary tubular epithelial cells; conditions: cited from earlier work
[5] = system: bleomycin-induced fibrosis; conditions: administered from the beginning of bleomycin challenge; cited from earlier work
[6] = system: skin fibrosis; conditions: induced by bleomycin or topoisomerase I and chronic graft-versus-host disease; cited from earlier work
[7] = system: sponge implant model; conditions: subcutaneous or intraperitoneal implant; cited from earlier work
[8] = system: hepatic stellate cells; conditions: cited from earlier work
[9] = system: A549 human alveolar epithelial cell line; conditions: TGF-β1-stimulated; cited from earlier work
[10] = system: bile duct ligation-induced hepatic fibrosis; conditions: rat, in vivo; cited from earlier work
[11] = system: trinitrobenzene sulfonic acid-induced colitis; conditions: rat, in vivo; cited from earlier work
[12] = system: patients with IPF; conditions: in vivo; cited from earlier work
[13] = system: patients with IPF; conditions: IPF with mild or moderate impairment of FVC (≥50% predicted); cited from earlier work
[14] = system: normal human lung fibroblasts (NHLFs); conditions: cited from earlier work
[15] = system: normal human lung fibroblasts (NHLFs); conditions: in the presence of PGE2; cited from earlier work
[16] = system: dextran sulfate sodium-induced colitis ulcerosa; conditions: mouse, in vivo; cited from earlier work
[17] = system: normal human lung fibroblasts (NHLFs); conditions: in the presence of indacaterol; cited from earlier work
[18] = system: diethylnitrosamine-induced liver fibrosis; conditions: rat, in vivo; cited from earlier work
[19] = system: human lung fibroblast model (WI-38); conditions: in the presence of forskolin; cited from earlier work
[20] = system: bleomycin-induced fibrosis; conditions: cited from earlier work
[21] = system: chronic graft-versus-host disease; conditions: cited from earlier work
[22] = system: type II alveolar epithelial cells; conditions: cited from earlier work
[23] = system: bleomycin mice; conditions: mouse, in vivo; cited from earlier work
[24] = system: human lung fibroblasts; conditions: combination with nintedanib; WO2019/081235; cited from earlier work
[25] = biological target: PDE4 B subtype (Homo sapiens, UniProt Q07343); conditions: disclosed in WO 2013/026797; cited from earlier work
Chain of PDE4 B subtype (Q07343 whole entry): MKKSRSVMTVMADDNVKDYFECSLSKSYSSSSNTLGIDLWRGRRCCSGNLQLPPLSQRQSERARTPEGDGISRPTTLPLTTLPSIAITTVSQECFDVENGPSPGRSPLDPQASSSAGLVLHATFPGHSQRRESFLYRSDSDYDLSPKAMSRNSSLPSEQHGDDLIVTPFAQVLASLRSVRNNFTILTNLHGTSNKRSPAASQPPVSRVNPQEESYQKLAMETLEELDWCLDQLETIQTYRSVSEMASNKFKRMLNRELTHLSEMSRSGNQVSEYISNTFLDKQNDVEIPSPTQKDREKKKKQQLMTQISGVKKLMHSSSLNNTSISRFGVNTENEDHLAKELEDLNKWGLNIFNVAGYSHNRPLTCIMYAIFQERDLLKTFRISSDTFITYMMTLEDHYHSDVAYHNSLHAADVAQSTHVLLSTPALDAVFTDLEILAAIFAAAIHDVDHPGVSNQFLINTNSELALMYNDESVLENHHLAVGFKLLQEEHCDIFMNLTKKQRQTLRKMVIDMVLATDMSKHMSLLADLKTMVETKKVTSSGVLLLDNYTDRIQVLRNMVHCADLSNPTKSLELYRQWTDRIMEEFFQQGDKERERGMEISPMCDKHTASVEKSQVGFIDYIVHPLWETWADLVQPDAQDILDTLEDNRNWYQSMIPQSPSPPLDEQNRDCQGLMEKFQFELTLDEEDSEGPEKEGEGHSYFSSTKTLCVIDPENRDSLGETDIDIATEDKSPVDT

[26] = system: IPF patients; assay: Phase II clinical trial in IPF patients: disposition / premature discontinuation; assay type: in vivo, human; conditions: 18 mg b.i.d.
Procedure: The participants were divided into 2 groups by chance (the “active agent group” and the “placebo group”). […] One 12 mg placebo tablet and one 6 mg placebo tablet (both containing no active ingredient, see Table 1) was administered orally to the patients of the second group twice daily (b.i.d.).
The “active agent group” and the “placebo group” were further distributed to two different groups regarding background medication: the “AF-group” (“antifibrotic background medication group”) and the “Non-AF-group” (“no antifibrotic background medication group”). […] The combination of both nintedanib and pirfenidone as background medication was not allowed in the “AF-group”.
The trial was a randomised, double-blind, placebo-controlled parallel group study.

[27] = system: IPF patients; assay: Phase II clinical trial in IPF patients: Treatment Emergent Adverse Events
[28] = system: IPF patients; conditions: male, human, in vivo, 13 weeks
[29] = system: tuberculosis model; conditions: rabbit, in vivo; cited from earlier work
[30] = system: human fetal lung fibroblast strain (GM06114); conditions: in the presence of PGE2; cited from earlier work
[31] = system: normal human lung fibroblasts (NHLFs); conditions: stimulated by bleomycin or 8-epi-PGF2α; cited from earlier work
[32] = system: bleomycin mice; conditions: mouse, in vivo; cited from earlier work; remark: listed apart in the source
[33] = AF-group nintedanib background, 18 mg b.i.d.
[34] = AF-group pirfenidone background, 18 mg b.i.d.
[35] = Total (Non-AF + AF), 18 mg b.i.d.

## COc1ccc(C2CNC(=O)C2)cc1OC1CCCC1 (stereo not shown) [rolipram]
[1]
  FN-induced chemotaxis and contraction of collagen gels: inhibited FN-induced chemotaxis and contraction of collagen gels
[2]
  Fibrotic reactions: inhibited fibrotic reactions
[3]
  Renal interstitial fibrosis: inhibit renal interstitial fibrosis
[4]
  TGF-β-induced damage, FN expression, deficiency of mitochondrial biogenesis: inhibited TGF-β-induced damage, FN expression, and deficiency of mitochondrial biogenesis
[5]
  Fibrotic score, hydroxyproline content, serum TNF-α: inhibit fibrotic score, hydroxyproline content, and serum tumor necrosis factor-α (TNF-α)
[6]
  Skin fibrosis: inhibited
[7]
  Intra-implant collagen and TGF-β1 deposition: inhibiting intra-implant collagen and TGF-β1 deposition
[8]
  mRNA expression of α-SMA and Col1A2: inhibited mRNA expression of α-SMA and Col1A2
[9]
  Epithelial-mesenchymal transition changes: inhibited epithelial-mesenchymal transition changes like FN and collagen mRNA expression, although not α-SMA mRNA
[10]
  Collagen deposition, α-SMA staining and mRNA expression: inhibited collagen deposition, α-smooth muscle actin (α-SMA) staining, and mRNA expression
[11]
  Collagen and TGF-β1 in colonic tissue: inhibited collagen and TGF-β1

## Cc1ccc(=O)n(-c2ccccc2)c1 [pirfenidone]
[12]
  Most prominent side effects: gastrointestinal events, particularly diarrhea, nausea, vomiting, abdominal pain, decreased appetite and a decreased body weight
[13]
  Effect on FVC decline: can only reduce the decline in FVC

## COc1ccc(C(=O)Nc2c(Cl)cncc2Cl)cc1OC1CCCC1 [piclamilast]
[14]
  IL-1β plus bFGF-stimulated fibroblast proliferation: inhibition of IL-1β plus bFGF-stimulated fibroblast proliferation
[15]
  TGF-β-induced fibroblast-to-myofibroblast conversion (α-SMA expression): inhibited

## CCOc1cc([C@@H](CS(C)(=O)=O)N2C(=O)c3cccc(NC(C)=O)c3C2=O)ccc1OC [apremilast]
[6]
  Skin fibrosis: inhibited
[16]
  Fibrosis in colon, collagen deposition, fibrosis-related gene expression: inhibited fibrosis in colon, collagen deposition, and the expression of genes related to fibrosis

## O=C(Nc1c(Cl)cncc1Cl)c1ccc(OC(F)F)c(OCC2CC2)c1 [roflumilast]
[17]
  TGF-β1-induced CTGF mRNA, α-SMA protein expression and FN: inhibition
[18]
  Liver fibrosis, hydroxyproline deposition, TGF-β1 expression: inhibited diethylnitrosamine-induced liver fibrosis, hydroxyproline deposition, and TGF-β1 expression
[19]
  TGF-β-induced mRNA expression of collagen α1, CTGF, and FN: inhibited
[20]; in vivo
  Right ventricular hypertrophy and vascular remodeling (pulmonary arteries): positively influenced
[20]; lung extracts
  Fibrosis, hydroxyproline content and mRNA expression in lung extracts: inhibited histologically assessed fibrosis, hydroxyproline content
[20]; oral
  Activity in preventive and therapeutic protocols: active both in preventive and in therapeutic protocols in a dose-dependent manner
[21]; mouse, in vivo
  Fibrosis, collagen deposition, hydroxyproline, TGF-β1, cell infiltration, IL-6 and IL-1β mRNA: inhibited fibrosis, collagen deposition, hydroxyproline and TGF-β1 content, cell infiltration, and expression of mRNA for IL-6 and IL-1β
[21]; oral
  Lung fibrosis: attenuated
[22]; mouse, in vivo
  Lung hydroxyproline content and mRNA expression of TNF-α, FN, CTGF: lowered lung hydroxyproline content and mRNA expression of TNF-α, fibronectin (FN), and CTGF
[22]; therapeutic regimen
  Potency relative to pirfenidone and nintedanib: therapeutically equipotent to pirfenidone and nintedanib
[23]
  Levels of the amino acids glycine and proline: lowered
  Lung glutathione and plasma tetrahydrobiopterin: increased

## [O-][S@+]1CCc2nc(N3CCC(c4ncc(Cl)cn4)CC3)nc(NC3(CO)CCC3)c21 [Comp. of Form. III]
[24]
  Effect on fibroblast proliferation: synergistic overadditive effect
[25]
  PDE4 subtype preference: inhibit preferentially the PDE4 B subtype
[26]; AF-group
  Not completed observation period: Death, %: 2.0%
  Not completed planned treatment period (prematurely discontinued trial medication), %: 20.4%
  Not completed treatment period: Adverse Event, %: 20.4%
[26]; Non-AF-group
  Not completed observation period: Death, %: 2.1%
  Not completed planned treatment period (prematurely discontinued trial medication), %: 10.4%
  Not completed treatment period: Adverse Event, %: 6.3%
[27]; [33]
  AE: Infections and infestations: 6 (23.1) n (%)
  Serious AEs: Results in Death, %: 0%
[27]; [34]
  AE: Infections and infestations: 1 (4.3) n (%)
  Serious AEs: Results in Death, %: 4.3%
[27]; AF-group, 18 mg b.i.d.
  AE: Infections and infestations: 7 (14.3) n (%)
  Patients with AE resulting in death: 1 (2.0) n (%)
[27]; AF-group, 18 mg b.i.d., bracketed value marked * (fatal events)
  SAE: General disorders and administration side conditions, fatal events: [1 (2.1)]* n (%)
[27]; AF-group, 18 mg b.i.d., fatal event
  SAE: Vasculitis: 1 (2.0)* n (%)
[27]; Non-AF-group, 18 mg b.i.d.
  AE: Infections and infestations: 7 (14.6) n (%)
  Patients with AE resulting in death: 1 (2.1) n (%)
  SAE: Infections and Infestations: 1 (2.1) n (%)
[27]; Non-AF-group, 18 mg b.i.d., fatal event
  SAE: Covid-19 pneumonia: 1 (2.1)* n (%)
[27]; [35]
  AE: Infections and infestations: 14 (14.4) n (%)
  Patients with AE resulting in death: 2 (2.1) n (%)
  SAE: Covid-19 pneumonia: 1 (1.0) n (%)
  SAE: Infections and Infestations: 1 (1.0) n (%)
[27]; active agent group, all, one Covid-19 pneumonitis, one unconfirmed vasculitis
  Patients who experienced an AE resulting in death: 2 patients
[28]
  Moderate cases of diarrhoea: 2.1%
  Severe case of diarrhoea: 1.0%

## CCOc1cc([C@@H](CS(C)(=O)=O)N2Cc3cccc(NC(=O)C4CC4)c3C2=O)ccc1OC [CC-11050]
[29]
  Pulmonary damage and fibrosis: inhibited

## COC(=O)c1ccc2c(c1)NC(=O)/C2=C(\Nc1ccc(N(C)C(=O)CN2CCN(C)CC2)cc1)c1ccccc1 [nintedanib]
[12]
  Most prominent side effects: gastrointestinal events, particularly diarrhea, nausea, vomiting, abdominal pain, decreased appetite and a decreased body weight
[13]
  Effect on FVC decline: can only reduce the decline in FVC

## O=C(Nc1c(Cl)c[n+]([O-])cc1Cl)c1ccc(OC(F)F)c(OCC2CC2)c1 [roflumilast N-oxide]
[30]
  ICAM-1 and eotaxin release, proliferation, α-SMA, CTGF, FN mRNA: inhibit intercellular adhesion molecule-1 and cotaxin release stimulated by TNF-α
[31]
  NHLF responses (collagen synthesis, proliferation, ROS and F2-isoprostane formation, NADPH oxidase 4 expression): inhibited

## COc1ccc([C@]2(C#N)CC[C@@H](C(=O)O)CC2)cc1OC1CCCC1 [cilomilast]
[1]
  FN-induced chemotaxis and contraction of collagen gels: inhibited FN-induced chemotaxis and contraction of collagen gels
[32]
  Late-stage lung fibrosis and collagen content: inhibit late-stage lung fibrosis and tended to reduce collagen content
  TGF-β1 and collagen type (Col) 1A1 expression: no effect
